In US10368545B2, “Substituted 2-thioimidazolylcarboxamides as pesticides” (BAYER CROPSCIENCE AKTIENGESELLSCHAFT, priority 2015, dated 2019):

system: not listed separately; assay: log P by HPLC on reversed-phase C18 columns (OECD Guideline 117); assay type: physicochemical; details: method [a]
Procedure: The log P values were determined in accordance with OECD Guideline 117 (EC Directive 92/69/EEC) by HPLC (high-performance liquid chromatography) using reversed-phase (RP) columns (C18), by the following methods:
[a] The LC-MS determination in the acidic range was carried out at pH 2.7 with 0.1% aqueous formic acid and acetonitrile (contains 0.1% formic acid) as mobile phases; linear gradient from 10% acetonitrile to 95% acetonitrile.
[b] LC-MS determination in the neutral range was carried out at pH 7.8 with 0.001 molar aqueous ammonium hydrogencarbonate solution and acetonitrile as mobile phases; linear gradient from 10% acetonitrile to 95% acetonitrile.

Structure (SMILES) | logP[a]
CN(C(=O)c1cnc(S(=O)(=O)c2ccc([N+](=O)[O-])cc2)n1C)c1cccnc1 [I-A-90] | 1.58
CN(C)C(=O)c1cccc([S+]([O-])c2ncc(C(=O)N(C)c3cccnc3)n2C)c1 (stereo not drawn) [I-A-91] | 0.76
CN(C)C(=O)c1ccccc1S(=O)(=O)c1ncc(C(=O)N(C)c2cccnc2)n1C [I-A-92] | 1.12
CCN(C(=O)c1cnc(Sc2ncccn2)n1C)c1cccnc1 [I-A-98] | 1.04
Cc1cnc(Sc2ncc(C(=O)N(C)c3cccnc3)n2C)nc1C [I-A-103] | 1.23
CN(C(=O)c1cnc(SCc2cncn2C)n1C)c1cccnc1 [I-A-114] | 0.20
CN(C(=O)c1cnc(SCc2ccn(C)n2)n1C)c1cccnc1 [I-A-115] | 0.76
CN(C(=O)c1cnc(SCc2cccnc2)n1C)c1cccnc1 [I-A-119] | 0.39
CN(C(=O)c1cnc(SCc2ccco2)n1C)c1cccnc1 [I-A-120] | 1.34
CN(C(=O)c1cnc(SCc2ccc(Cl)c(Cl)c2)n1C)c1cccnc1 [I-A-121] | 2.51
CN(C(=O)c1cnc(SCc2c(F)cccc2F)n1C)c1cccnc1 [I-A-123] | 1.69
COc1cccc(F)c1CSc1ncc(C(=O)N(C)c2cccnc2)n1C [I-A-124] | 1.72
CN(C(=O)c1cnc(SCc2c(F)cccc2Cl)n1C)c1cccnc1 [I-A-127] | 1.89
Cc1cccc(C)c1CSc1ncc(C(=O)N(C)c2cccnc2)n1C [I-A-129] | 2.32
Cc1cc([N+](=O)[O-])nn1CSc1ncc(C(=O)N(C)c2cccnc2)n1C [I-A-131] | 1.28
CN(C(=O)c1cnc(SCC(=O)NC2CC2)n1C)c1cccnc1 [I-A-132] | 0.59
COC(=O)C(C)(C)NC(=O)CSc1ncc(C(=O)N(C)c2cccnc2)n1C [I-A-133] | 1.06
COC(=O)c1cnc(Sc2ncc(C(=O)N(C)c3cccnc3)n2C)n1C [I-A-143] | 1.12

same assay, conditions: method [b]

Structure (SMILES) | logP[b]
CN(C(=O)c1cnc(S(=O)(=O)c2ccc([N+](=O)[O-])cc2)n1C)c1cccnc1 [I-A-90] | 1.68
CN(C)C(=O)c1cccc([S+]([O-])c2ncc(C(=O)N(C)c3cccnc3)n2C)c1 (stereo not drawn) [I-A-91] | 0.96
CN(C)C(=O)c1ccccc1S(=O)(=O)c1ncc(C(=O)N(C)c2cccnc2)n1C [I-A-92] | 1.29
CCN(C(=O)c1cnc(Sc2ncccn2)n1C)c1cccnc1 [I-A-98] | 1.22
CN(C(=O)c1cnc(SCc2cncn2C)n1C)c1cccnc1 [I-A-114] | 0.85
CN(C(=O)c1cnc(SCc2ccn(C)n2)n1C)c1cccnc1 [I-A-115] | 1.12
CN(C(=O)c1cnc(SCc2nccn2C)n1C)c1cccnc1 [I-A-118] | 0.89
CN(C(=O)c1cnc(SCc2cccnc2)n1C)c1cccnc1 [I-A-119] | 1.15
CN(C(=O)c1cnc(SCc2ccco2)n1C)c1cccnc1 [I-A-120] | 1.55
CN(C(=O)c1cnc(SCc2ccc(Cl)c(Cl)c2)n1C)c1cccnc1 [I-A-121] | 2.62
CN(C(=O)c1cnc(SCc2c(F)cccc2F)n1C)c1cccnc1 [I-A-123] | 1.92
COc1cccc(F)c1CSc1ncc(C(=O)N(C)c2cccnc2)n1C [I-A-124] | 2.03
CN(C(=O)c1cnc(SCc2c(F)cccc2Cl)n1C)c1cccnc1 [I-A-127] | 2.09
Cc1cccc(C)c1CSc1ncc(C(=O)N(C)c2cccnc2)n1C [I-A-129] | 2.44
Cc1cc([N+](=O)[O-])nn1CSc1ncc(C(=O)N(C)c2cccnc2)n1C [I-A-131] | 1.40
CN(C(=O)c1cnc(SCC(=O)NC2CC2)n1C)c1cccnc1 [I-A-132] | 0.94
COC(=O)C(C)(C)NC(=O)CSc1ncc(C(=O)N(C)c2cccnc2)n1C [I-A-133] | 1.22
COC(=O)c1cnc(Sc2ncc(C(=O)N(C)c3cccnc3)n2C)n1C [I-A-143] | 1.27

same assay, conditions: neutral range, pH 7.8, 0.001 molar aqueous ammonium hydrogencarbonate / acetonitrile

Structure (SMILES) | log P[n]
CN(C(=O)c1cncn1C)c1cccnc1 [XV-1] | 0.42
CN(C(=O)c1cn(C)c(Br)n1)c1cccnc1 [XXI-1] | 0.76

same assay, conditions: reversed-phase C18 HPLC column, pH 2.7, acidic range, pH 2.7, 0.1% aqueous formic acid / acetonitrile; read-out: log P[a]

Structure (SMILES) | chromatographic logP
CN(C(=O)c1cncn1Cc1ccccc1)c1cccnc1 [1-benzyl-N-methyl-N-(pyridin-3-yl)-1H-imidazole-5-carboxamide] | 0.85
Cn1c(C(=O)O)cnc1Br [IX-1, 1-methyl-2-bromoimidazole-5-carboxylic acid] | 0.31
Cn1cc(C(=O)O)nc1Br [XIX-1, 2-bromo-1-methyl-1H-imidazole-4-carboxylic acid] | 0
Cn1cnc(C(=O)OC(C)(C)C)c1 [XVII-1, tert-butyl 1-methyl-1H-imidazole-4-carboxylate] | 0.74
Cn1cc(C(=O)OC(C)(C)C)nc1Br [XVIII-1, tert-butyl 2-bromo-1-methyl-1H-imidazole-4-carboxylate] | 1.27

same assay, conditions: reversed-phase C18 HPLC column, pH 2.7, method [a]; read-out: logP[a]

Structure (SMILES) | chromatographic logP
CNC(=O)CSc1ncc(C(=O)N(C)c2cccnc2)n1C [I-A-33] | 0.33
CN(C(=O)c1cnc(S(=O)(=O)c2ccc(F)cc2)n1C)c1ccc[n+]([O-])c1 [I-A-83] | 1.12
CN(C(=O)c1cnc(Sc2ncccn2)n1Cc1ccccc1)c1cccnc1 [I-A-111, 1-benzyl-N-methyl-N-(pyridin-3-yl)-2-(pyrimidin-2-ylsulphanyl)-1H-imidazole-5-carboxamide] | 1.73

same assay, conditions: reversed-phase C18 HPLC column, pH 7.8, method [b]; read-out: logP[b]

Structure (SMILES) | chromatographic logP
CNC(=O)CSc1ncc(C(=O)N(C)c2cccnc2)n1C [I-A-33] | 0.62
CN(C(=O)c1cnc(S(=O)(=O)c2ccc(F)cc2)n1C)c1ccc[n+]([O-])c1 [I-A-83] | 1.23
CN(C(=O)c1cnc(Sc2ncccn2)n1Cc1ccccc1)c1cccnc1 [I-A-111, 1-benzyl-N-methyl-N-(pyridin-3-yl)-2-(pyrimidin-2-ylsulphanyl)-1H-imidazole-5-carboxamide] | 1.78

same assay, conditions: reversed-phase C18 HPLC column, pH 7.8, neutral range, pH 7.8, 0.001 molar aqueous ammonium hydrogencarbonate / acetonitrile; read-out: log P[n]

Structure (SMILES) | chromatographic logP
CN(C(=O)c1cncn1Cc1ccccc1)c1cccnc1 [1-benzyl-N-methyl-N-(pyridin-3-yl)-1H-imidazole-5-carboxamide] | 1.4

system: green peach aphid (Myzus persicae); assay: Myzus persicae spray test (Chinese cabbage leaf discs); assay type: in vivo; details: Myzus persicae, foliar; application rate 500 g/ha; after 5 or 6 days; Chinese cabbage leaf discs; read-out: efficacy (aphids killed)
Procedure: Myzus persicae—Spray Test
Solvent: 78 parts by weight of acetone • • 1.5 parts by weight of dimethylformamide
Emulsifier: alkylaryl polyglycol ether
To produce a suitable active compound preparation, 1 part by weight of active compound is dissolved using the stated parts by weight of solvent and made up with water containing an emulsifier concentration of 1000 ppm until the desired concentration is attained. To produce further test concentrations, the preparation is diluted with emulsifier-containing water.
Discs of Chinese cabbage leaves (Brassica pekinensis) infested by all stages of the green peach aphid (Myzus persicae) are sprayed with an active compound preparation of the desired concentration.
After 5 or 6 days, the efficacy in % is determined. 100% means that all the aphids were killed; 0% means that no aphids were killed.

Structure (SMILES) | pest or weed control at 500 g/ha
CN(C(=O)c1cnc(S(=O)(=O)c2ccc(F)cc2)n1C)c1ccc[n+]([O-])c1 [I-A-83] | 90%

same assay, conditions: application rate 500 g/ha; after 5 or 6 days; Chinese cabbage leaf discs

Structure (SMILES) | efficacy (aphids killed)
CCN(C(=O)c1cnc(Sc2ncccn2)n1C)c1cccnc1 [I-A-98] | 90%
Cc1cnc(Sc2ncc(C(=O)N(C)c3cccnc3)n2C)nc1C [I-A-103] | 100%
CN(C(=O)c1cnc(SCc2cccnc2)n1C)c1cccnc1 [I-A-119] | 90%
CN(C(=O)c1cnc(SCc2ccco2)n1C)c1cccnc1 [I-A-120] | 90%
CN(C(=O)c1cnc(SCc2c(F)cccc2F)n1C)c1cccnc1 [I-A-123] | 90%
COc1cccc(F)c1CSc1ncc(C(=O)N(C)c2cccnc2)n1C [I-A-124] | 90%
CN(C(=O)c1cnc(SCc2c(F)cccc2Cl)n1C)c1cccnc1 [I-A-127] | 90%
Cc1cc([N+](=O)[O-])nn1CSc1ncc(C(=O)N(C)c2cccnc2)n1C [I-A-131] | 90%
CN(C(=O)c1cnc(SCC(=O)NC2CC2)n1C)c1cccnc1 [I-A-132] | 90%
